# Test results published in publication PMC8152350, “High cytotoxicity of betulin towards fish and murine fibroblasts: Is betulin safe for nonneoplastic cells?” (BMC Veterinary Research, 2021).
# Read-outs that look alike come from different tables or passages of the source.
# Key:
# [1] = system: human skin fibroblasts (WS1); design: method as in PMID 16787747; settings: WS1, resazurin reduction test, 48 h, cited from earlier work
# G361 = system: G361; design: method as in PMID 12697374; settings: G361 melanoma; read-out: IC50 of betulin; cited from earlier work
# [2] = system: human skin fibroblasts (HSF); settings: 24-h exposure, cited from earlier work
# NB-1 = system: NB-1; design: method as in PMID 12697374; settings: NB-1 neuroblastoma; read-out: IC50 of betulin; cited from earlier work
# [3] = NRU assay (lysosomal membrane integrity), murine fibroblasts; assay type: cell-based, mouse; settings: mouse, NIH/3T3 embryonic fibroblasts, n = 3
# Method: (§1) All experiments were repeated three times.
# (§2) The NRU assay evaluates lysosomal membrane integrity. It measures neutral red dye accumulation within lysosomes of viable cells.
# (§3) The NRU assay was performed using a commercially available kit (TOX4) (Sigma-Aldrich, Poland) according to the manufacturer’s protocol. The full description of the test procedure was also provided in a published article.
# NIH/3T3 cells [4] = assay: as above; assay type: cell-based, mouse; settings: NIH/3T3, beginning at 48 h
# Method: as §1, §2, §3
# T47D (breast cancer) = system: T47D (breast cancer); design: method as in PMID 23595090; settings: SRB assay; cited from earlier work
# [5] = system: B16 cells (B164A5 and B16F10); design: method as in PMID 25756279; settings: B16 melanoma cells; cited from earlier work
# NIH/3T3 cells [6] = assay: LDH leakage assay (cellular membrane integrity), murine fibroblasts; assay type: cell-based, mouse; settings: NIH/3T3, 24 h
# Method: as §1
# The LDH assay measures leakage of the stable cytosolic enzyme lactate dehydrogenase into the culture medium, which is an indicator of irreversible cell membrane damage and cell death.
# The LDH assay was performed using a commercially available kit (TOX7) (Sigma-Aldrich, Poland) according to the manufacturer’s protocol. The full description of the test procedure was also reported previously. The results obtained are reported as the percentage of LDH leakage to the culture media in control (nontreated) cells.
# [7] = system: B16 cells (B164A5 and B16F10); design: method as in PMID 25756279; settings: 150 µM betulin; cited from earlier work
# A375 (melanoma) = system: A375 (melanoma); design: method as in PMID 22627971, PMID 23379693; settings: A375, 20 µM; cited from earlier work
# P388 (murine leukaemia) = system: P388 (murine leukaemia); design: method as in PMID 23595090; settings: P388, MTT assay; cited from earlier work
# [8] = SRB assay (total cellular protein content), fish fibroblasts; assay type: cell-based, bluegill; settings: bluegill, BF-2 caudal trunk fibroblasts, n = 3
# Method: (§4) BF-2 (ATCC CCL-91) bluegill caudal trunk fibroblasts were grown in minimum essential medium (Eagle, EBSS) supplemented with 1 % nonessential amino acids (NEAAs), 10 % foetal bovine serum and 1 % antibiotic-antimycotic solution at 23 °C in a humidified atmosphere with 5 % CO2.
# as §1
# (§5) The sulforhodamine B colorimetric assay measures the cellular protein content, and the assay results are proportional to the number of cells.
# (§6) The SRB assay was performed using a commercially available kit (TOX6) (Sigma-Aldrich, Poland) according to the manufacturer’s protocol. In this assay, SRB binds to protein components of trichloroacetic acid-fixed cells, and the protein-bound dye is extracted with Tris. The results obtained are presented as the percentage of the total cellular protein content in control (nontreated) cells.
# BF-2 cells = assay: as above; assay type: cell-based, bluegill; settings: BF-2
# Method: as §4, §1, §5, §6
# Bcap-37 (breast cancer) = system: Bcap-37 (breast cancer); design: method as in PMID 22627971, PMID 23379693; settings: Bcap-37, 20 µM; cited from earlier work
# HL60 = system: HL60; design: method as in PMID 12697374; settings: HL60 leukaemia; read-out: IC50 of betulin; cited from earlier work
# B16-F1 (mouse melanoma) = system: B16-F1 (mouse melanoma); design: method as in PMID 16787747; settings: read-out: IC50 of betulin; cited from earlier work
# SK-MEL-28 = system: SK-MEL-28; design: method as in PMID 12697374; settings: SK-MEL-28 melanoma; read-out: IC50 of betulin; cited from earlier work
# [9] = system: veterinary pathogens, both bacterial and viral; assay: Antimicrobial activity towards veterinary pathogens (data not shown)
# K562 = system: K562; design: method as in PMID 12697374; settings: K562 leukaemia; read-out: IC50 of betulin; cited from earlier work
# in vitro = assay type: cell-based, mouse; settings: mouse
# Method: as §1, §5, §6
# NIH/3T3 cells [10] = assay: in vitro; assay type: cell-based, mouse; settings: NIH/3T3, 72 h
# Method: as §1, §5, §6
# DLD-1 = system: DLD-1; design: method as in PMID 16787747; settings: read-out: IC50 of betulin; cited from earlier work
smiles,measurement,setting,value
"C=C(C)[C@@H]1CC[C@]2(CO)CC[C@]3(C)[C@H](CC[C@@H]4[C@@]5(C)CC[C@H](O)C(C)(C)[C@@H]5CC[C@]43C)[C@@H]12 [betulin, Betulin]","IC50 of betulin, converted",[1]; conversion of µM value,ca. 1.6 µg/ml
same,IC50,[1]; read-out: IC50 of betulin,3.58 µM
same,IC50,G361,12.4 µM
same,"betulin concentrations causing considerable LDH leakage, converted",[2]; conversion of µM value,≥ 4.4 µg/mL
same,"betulin concentrations not toxic, converted",[2]; conversion of µM value,≤ 2.2 µg/mL
same,betulin concentrations causing considerable LDH leakage,[2],≥ 10 µM
same,betulin concentrations not toxic,[2],up to 5 µM
same,IC50,NB-1,16.5 µM
same,CC50 at 24 h,"[3]; NIH/3T3, 24 h, read-out: CC50 betulin NRU 24 h",> 15.6 µg/mL
same,CC50 at 48 h,"[3]; NIH/3T3, 48 h, mean ± SD, read-out: CC50 betulin NRU 48 h",7.33 ± 2.94 µg/mL
same,CC50 at 72 h,"[3]; NIH/3T3, 72 h, mean ± SD, read-out: CC50 betulin NRU 72 h",13 ± 2.94 µg/mL
same,betulin concentration causing considerable decrease in viability (NRU),NIH/3T3 cells [4],≥ 3.9 µg/mL
same,IC50 of betulin,T47D (breast cancer),32.4 µg/mL
same,betulin concentration from which almost complete lack of cell mitochondrial activity was observed (MTT),[5],≥ 15 µM
same,betulin concentration inducing substantial LDH leakage,NIH/3T3 cells [6],7.8 µg/mL
same,trypan blue exclusion capacity,[7],60%
same,inhibitory activity of betulin,A375 (melanoma),33.9%
same,IC50 of betulin,P388 (murine leukaemia),5.5 µg/mL
same,CC50 at 24 h,"[8]; BF-2, 24 h, read-out: CC50 betulin SRB 24 h",> 31.2 µg/mL
same,CC50 at 48 h,"[8]; BF-2, 48 h, read-out: CC50 betulin SRB 48 h",> 31.2 µg/mL
same,CC50 at 72 h,"[8]; BF-2, 72 h, read-out: CC50 betulin SRB 72 h",> 31.2 µg/mL
same,betulin concentration causing considerable decrease in the number of cells (SRB),BF-2 cells,at least 15.625 µg/mL
same,inhibitory activity of betulin,Bcap-37 (breast cancer),53.2%
same,IC50,HL60,14.7 µM
same,IC50,B16-F1 (mouse melanoma),13.8 µM
same,IC50,SK-MEL-28,16.2 µM
same,antimicrobial activity towards tested veterinary pathogens,[9],did not confirm the antimicrobial activity
same,IC50,K562,14.5 µM
same,CC50,"in vitro; NIH/3T3, 24 h, mean ± SD, n = 3, read-out: CC50 betulin SRB 24 h",10.9 ± 7.34 µg/mL
same,CC50,"in vitro; NIH/3T3, 48 h, mean ± SD, n = 3, read-out: CC50 betulin SRB 48 h",4.05 ± 1.24 µg/mL
same,CC50,"in vitro; NIH/3T3, 72 h, mean ± SD, n = 3, read-out: CC50 betulin SRB 72 h",3.76 ± 0.572 µg/mL
same,CC50,"in vitro; NIH/3T3, depending on incubation time (24-72 h), read-out: CC50 of betulin in SRB assay, range over incubation times",3.76 to 10.9 µg/mL
same,betulin concentration causing considerable decrease in total cellular protein content (SRB),NIH/3T3 cells [10],≥ 1.95 µg/mL
same,IC50,DLD-1,6.6 µM
